Laboratory results taken from article PMC13114161 (Antibiotics, 2026).

Assays:
P. aeruginosa ATCC 27853 [1] = test: MIC and levofloxacin potentiation (broth microdilution); type: cell-based, Pseudomonas aeruginosa; conditions: ATCC 27853
Method: Once synthesized, the three fluorinated EPI analogs (TXA11114, TXA11164 and TXA12027) were first assayed for their antibacterial activities against P. aeruginosa ATCC 27853. They had MICs of 100, >200 and 100 µg/mL, respectively (Table 1). […] Particularly, the inactivity of TXA11164 was surprising as the pKa values of both the amines are similar to that in TXA11114.
(§1) MIC assays for potentiation of antimicrobial activity against P. aeruginosa were performed as described previously.

in vivo = conditions: female, CD-1, mouse, iv
Method: Thus, the safety and tolerability of TXA11114 was determined to find an optimum dosing capability. The maximum tolerated dose (MTD) of TXA11114 was assessed in female mice (CD-1, 6–8 weeks old) at the University of North Texas Health Science Center (UNTHSC). TXA11114 was administered IV to groups of three female mice. Mice were administered TXA11114 in the range 30–240 mg/kg (IV bolus). […] As doses are tolerated (not resulting in effects such as mortality, convulsions, or other severe morbidity), they are increased. Survival and general observations as to the tolerability of the administered dose started immediately and continued for a period of 48 h after each dose was recorded.

P. aeruginosa ATCC 27853 [2] = test: Neutropenic murine thigh infection model; type: in vivo, CD-1 mice; conditions: thigh or lung infection models
Method: Female CD-1 mice (6–8 weeks old; 22 ± 2 g) were obtained from Envigo Laboratories, quarantined for at least 3 days, and housed 5 per cage in accordance with the approved IACUC protocol (IACUC-2017-0049). Neutropenia was induced by intraperitoneal (IP) administration of cyclophosphamide (Cytoxan) at 150 mg/kg on day 4 and 100 mg/kg on day 1 prior to infection.
Mice were infected intramuscularly (IM) in the right thigh with 0.1 mL of bacterial suspension containing approximately 1 × 10^5–10^6 CFU/mL. […] At 2 h or 24 h post-infection, mice were euthanized by CO2 asphyxiation, and thighs were aseptically excised and placed in 2 mL sterile phosphate-buffered saline (PBS) on ice. Tissue homogenization was performed using a Polytron PT10-35 (12 mm aggregate, Kinematica, Malters, Switzerland).
Plates were incubated overnight at 37 °C, and colonies were enumerated the following day.

P. aeruginosa [3] = system: P. aeruginosa; parameters: method as in PMID 35052908, PMID 35740123; conditions: against P. aeruginosa; cited from earlier work
P. aeruginosa [4] = test: MIC potentiation of antimicrobial agents by EPIs; type: cell-based, Pseudomonas aeruginosa; conditions: for Fold difference of antibiotic MIC + TXA01182 / MIC of antibiotic + TXA01182: TXA01182 at […]; for Fold difference of antibiotic MIC + TXA09155 / MIC of antibiotic + TXA09155: TXA09155 at […]; for Fold difference of antibiotic MIC + TXA11114 / MIC of antibiotic + TXA11114: TXA11114 at […];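 for Fold difference of antibiotic MIC + TXA01182: TXA01182 tested at 6.25 µg/mL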;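 for Fold difference of antibiotic MIC + TXA09155: TXA09155 tested at 6.25 µg/mL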; for Fold difference of antibiotic MIC + TXA11114: TXA11114 at 6.25 µg/mL;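 for MIC of antibiotic + TXA01182: TXA01182 tested at 6.25 µg/mL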;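 for MIC of antibiotic + TXA09155: TXA09155 tested at 6.25 µg/mL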; for MIC of antibiotic + TXA11114: TXA11114 at 6.25 µg/mL
Method: In contrast, the activities of gentamicin and imipenem were unchanged in the presence of TXA11114 under the conditions tested. Although gentamicin can be transported by the MexXY efflux system, the absence of potentiation in this assay is not sufficient to draw conclusions regarding MexXY inhibition or overall efflux specificity.
as §1

[5] = system: P. aeruginosa K1119 (∆mexAB-oprM); test: Antibiotic MIC potentiation in efflux mutants; type: cell-based, Pseudomonas aeruginosa
Method: (§2) Next, the ability of TXA11114 to inhibit P. aeruginosa mutants overexpressing MexAB-OprM was evaluated. Loss of function mutations in nalB resulting in the overexpression of MexAB-OprM have been identified in P. aeruginosa clinical isolates and are associated with resistance to cephalosporins, fluoroquinolones and aminoglycosides. In theory, an EPI should reverse the antimicrobial susceptibility lost in bacteria-overexpressing efflux pumps. Thus, the TXA11114 EPI activity was studied using antibiotics that display efflux liabilities in this RND efflux pump (Table 5).
as §1

[6] = system: P. aeruginosa K1455 (↑mexAB-oprM); test: Antibiotic MIC potentiation in efflux mutants; type: cell-based, Pseudomonas aeruginosa
Method: as §2, §1

P. aeruginosa K767 (WT) = test: Antibiotic MIC potentiation in efflux mutants; type: cell-based, Pseudomonas aeruginosa
Method: as §2, §1

P. aeruginosa ATCC 27853 [7] = test: Membrane polarization assay DiOC2(3); type: cell-based, Pseudomonas aeruginosa; conditions: Pseudomonas aeruginosa, ATCC27853; positive control; read-out: IC50 (membrane potential, DiOC2(3))
Method: RND efflux pumps require an intact proton motive force across the inner membrane to mediate drug efflux. Accordingly, collapse of the membrane potential could indirectly disable efflux activity and result in apparent antibiotic potentiation. To determine whether TXA11114 dissipates the membrane potential of P. aeruginosa, membrane polarization was assessed using the fluorescent probe 3,3′-diethyloxacarbocyanine iodide (DiOC2(3)). DiOC2(3) accumulates in cells with polarized membranes, undergoing a concentration-dependent shift from green to red fluorescence due to dye stacking; membrane depolarization prevents this shift. […] CCCP and azithromycin were included as positive and negative controls, respectively. […] This discrepancy likely reflects a methodological limitation of the DiOC2(3) assay in Gram-negative bacteria. Specifically, EDTA treatment is required to transiently permeabilize the outer membrane to permit DiOC2(3) access to the cytoplasmic membrane (see Methods). While necessary for probe uptake, EDTA can sensitize cells to secondary perturbations and may exaggerate subtle fluorescence changes at supraphysiological compound concentrations.
P. aeruginosa membrane polarization assays were conducted as described previously using strain ATCC 27853. Briefly, mid-exponential phase (OD600 of 0.5) P. aeruginosa was pelleted by centrifugation at 3000× g for 10 min at room temperature. Cells were then resuspended in 1× PBS, treated with 10 mM EDTA for 5 min and then centrifuged at 300× g for 10 min to remove EDTA. EDTA-treated cells were pelleted and resuspended to an OD600 of 1.0 in assay resuspension buffer. A 6 mM DiOC2(3) stock in DMSO was added to cells for a final concentration of 30 µM. DiOC2(3)-loaded cells were then added to a 96-well black bottom microplate for a final volume of 200 µL. […] After 15 min incubation at 37 °C in dark, DiOC2(3) fluorescence was recorded using the SpectraMax iD5 spectrophotometer (Molecular Devices, San Jose, CA, USA) using 450 nm excitation. Red fluorescence intensity was recorded at 670 nm emission.

P. aeruginosa ATCC 27853 [8] = test: Intracellular ATP levels; type: cell-based, Pseudomonas aeruginosa; conditions: three hours post-treatment
Method: Further, a deviation from normal membrane function can affect the activity of respiratory components and diminish ATP synthesis. Thus, an indirect approach to assess a drug’s membrane effect is by monitoring cellular ATP levels after treatment. To exclude ATP depletion as a TXA11114 MoA, bacterial ATP levels were evaluated three hours post-treatment. […] Azithromycin was used as a negative control.
P. aeruginosa intracellular ATP levels were determined as described previously using an ATP determination kit (Invitrogen, Life Technologies, Carlsbad, CA, USA). Bacterial culture strain ATCC 27853 was grown to the mid-log phase (OD600 = 0.7), washed, and resuspended in the same volume of PBSM (1X PBS, 1mM MgCl2). […] After treatment, the cells were lysed in chloroform which was subsequently removed by boiling at 80 °C. The persistent ATP from cell lysate was measured in a 96-well black flat-bottom plate by measuring the luminescence. Luminescence was converted to concentration from standard curve. […] Error bars represent the standard deviation of triplicates.

Row | Compound | Fold MIC reduction [LVX/EPI-LVX] (P. aeruginosa ATCC 27853 [1]; EPI at […]) [fold] | MIC (P. aeruginosa ATCC 27853 [1]; Pseudomonas aeruginosa, ATCC27853, EPI alone, read-out: EPI MIC) [µg/mL] | LVX MIC (+EPI) (P. aeruginosa ATCC 27853 [1]; levofloxacin MIC with EPI at […]) [µg/mL] | MTD at 48 h (in vivo) [mg/kg] | Improvement of levofloxacin efficacy in murine thigh or lung infection models (P. aeruginosa ATCC 27853 [2]) | Lowest concentration enhancing activity of monobactams, fluoroquinolones, sulfonamides and tetracyclines (P. aeruginosa [3]) [µg/mL] | Fold difference of antibiotic MIC + TXA01182 (P. aeruginosa [4]) [fold] | MIC of antibiotic + TXA01182 (P. aeruginosa [4]) [µg/mL] | Fold difference of antibiotic MIC + TXA09155 (P. aeruginosa [4]) [fold] | MIC of antibiotic + TXA09155 (P. aeruginosa [4]) [µg/mL] | Fold difference of antibiotic MIC + TXA11114 (P. aeruginosa [4]) [fold] | MIC of antibiotic + TXA11114 (P. aeruginosa [4]) [µg/mL] | MIC Ratio of Antibiotics Alone/(Antibiotics + […] TXA11114) [5] | MIC Ratio of Antibiotics Alone/(Antibiotics + […] TXA11114) [6] | MIC Ratio of Antibiotics Alone/(Antibiotics + […] TXA11114) (P. aeruginosa K767 (WT)) | Fold difference of antibiotic MIC + TXA11114 (P. aeruginosa [4]; listed as imipenem) | IC50 (P. aeruginosa ATCC 27853 [7]) [nM] | Cellular ATP level (P. aeruginosa ATCC 27853 [8])
1 | NCCC[C@@H](N)CNC(=O)c1cc2ccc(-c3ccc(F)cc3)cc2[nH]1 [TXA01182] | 8 | 100 | 0.125 | 12.5 | neither TXA01182 nor TXA09155 improved levofloxacin efficacy | 6.25 |  |  |  |  |  |  |  |  |  |  |  | 
2 | CO/N=C(\C(=O)N[C@@H]1C(=O)N2C(C(=O)[O-])=C(C[N+]3(C)CCCC3)CS[C@H]12)c1csc(N)n1 [Cefepime] |  |  |  |  |  |  | 2 | 1 | 4 | 0.5 | 4 | 0.5 | 2 | 16 | 8 |  |  | 
3 | C[C@@H](O)[C@H]1C(=O)N2C(C(=O)O)=C(SCCN=CN)C[C@H]12 [Imipenem] |  |  |  |  |  |  | 1 | 4 | 1 | 4 | 1 | 4 | 1 | 1 | 1 | unchanged |  | 
4 | N#CC(C#N)=NNc1cccc(Cl)c1 [CCCP, carbonyl cyanide 3-chlorophenylhydrazone] |  |  |  |  |  |  |  |  |  |  |  |  |  |  |  |  | 17 | significant depletion of ATP
